Article PMC9980915, “MYCMI-7: A Small MYC-Binding Compound that Inhibits MYC: MAX Interaction and Tumor Growth in a MYC-Dependent Manner” (Cancer Research Communications, 2022)

How the values were obtained:
[1] = molecular target: TOP2A (Homo sapiens, UniProt P11388); assay: in vitro TOP2A kDNA decatenation assay; type: biochemical
[2] = molecular target: MYC (Homo sapiens, UniProt P01106); assay: biochemical
Sequence of MYC (P01106 368-454 limits assumed): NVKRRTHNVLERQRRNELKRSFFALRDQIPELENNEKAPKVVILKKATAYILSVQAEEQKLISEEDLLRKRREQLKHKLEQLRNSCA

Sequence of TOP2A (P11388 whole entry): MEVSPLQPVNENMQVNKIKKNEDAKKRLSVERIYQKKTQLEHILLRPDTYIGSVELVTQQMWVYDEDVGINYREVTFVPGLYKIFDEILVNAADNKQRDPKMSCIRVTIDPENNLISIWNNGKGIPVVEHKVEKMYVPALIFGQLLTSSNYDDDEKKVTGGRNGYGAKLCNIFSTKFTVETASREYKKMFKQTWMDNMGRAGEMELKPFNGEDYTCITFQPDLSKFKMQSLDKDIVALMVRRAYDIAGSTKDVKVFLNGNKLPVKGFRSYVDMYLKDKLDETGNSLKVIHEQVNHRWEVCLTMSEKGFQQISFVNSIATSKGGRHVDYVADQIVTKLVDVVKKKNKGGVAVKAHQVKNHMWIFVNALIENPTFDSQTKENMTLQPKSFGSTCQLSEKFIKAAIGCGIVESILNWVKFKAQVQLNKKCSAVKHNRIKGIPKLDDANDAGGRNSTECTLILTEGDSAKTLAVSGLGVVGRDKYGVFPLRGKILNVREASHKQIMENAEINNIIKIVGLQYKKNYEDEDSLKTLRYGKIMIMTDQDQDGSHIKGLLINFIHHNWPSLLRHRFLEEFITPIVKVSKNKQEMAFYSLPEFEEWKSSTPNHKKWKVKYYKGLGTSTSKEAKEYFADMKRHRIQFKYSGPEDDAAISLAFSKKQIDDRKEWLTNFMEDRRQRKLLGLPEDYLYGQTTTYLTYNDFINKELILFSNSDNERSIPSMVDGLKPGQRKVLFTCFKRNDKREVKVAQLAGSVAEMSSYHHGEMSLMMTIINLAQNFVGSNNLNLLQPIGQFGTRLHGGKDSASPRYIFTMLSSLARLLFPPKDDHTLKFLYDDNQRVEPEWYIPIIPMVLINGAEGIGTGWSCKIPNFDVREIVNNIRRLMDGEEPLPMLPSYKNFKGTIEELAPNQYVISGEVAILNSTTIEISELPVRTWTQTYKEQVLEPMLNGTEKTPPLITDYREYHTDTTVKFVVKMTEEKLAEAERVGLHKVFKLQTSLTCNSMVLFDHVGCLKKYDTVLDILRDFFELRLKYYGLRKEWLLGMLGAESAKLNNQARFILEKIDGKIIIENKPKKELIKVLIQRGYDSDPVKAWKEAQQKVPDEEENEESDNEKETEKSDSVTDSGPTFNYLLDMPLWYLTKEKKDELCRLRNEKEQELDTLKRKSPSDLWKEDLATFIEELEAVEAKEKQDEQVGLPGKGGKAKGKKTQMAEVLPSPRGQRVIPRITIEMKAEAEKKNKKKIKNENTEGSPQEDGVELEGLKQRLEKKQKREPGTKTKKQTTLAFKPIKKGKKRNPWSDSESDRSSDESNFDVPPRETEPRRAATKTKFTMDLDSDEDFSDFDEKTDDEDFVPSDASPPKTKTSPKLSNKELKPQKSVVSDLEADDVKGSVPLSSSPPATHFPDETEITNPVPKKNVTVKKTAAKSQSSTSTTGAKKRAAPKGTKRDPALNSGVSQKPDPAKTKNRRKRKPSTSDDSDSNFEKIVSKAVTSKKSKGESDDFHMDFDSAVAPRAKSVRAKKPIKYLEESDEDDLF

| SMILES | in vitro TOP2A kDNA decatenation assay [1] | Kd [2] [µM] |
| --- | --- | --- |
| CCN(CC)CC[n+]1ccc2c(C)c3[nH]c4ccccc4c3c(C)c2c1 [MYCMI-7, 2-(5,11-Dimethyl-6H-25-pyrido[4,3-b]carbazol-2-yl)-N,N-diethylethanamine acetate] | > 10 µmol/L | ~4 |
| COc1cccc2c1C(=O)c1c(O)c3c(c(O)c1C2=O)C[C@@](O)(C(=O)CO)C[C@@H]3O[C@H]1C[C@H](N)[C@H](O)[C@H](C)O1 [doxorubicin, reference compound] | ~ 3 μmol/L | – |
